In US20050119281A1, “Powder composition comprising zaleplon of defined particle size distribution and pharmaceutical products made therefrom” (Biogal Gyogyszergyar Rt, priority 2002, published 2005):

Experiment: Particle size distribution of zaleplon particles by laser diffraction (Malvern Mastersizer)
Assay type: physicochemical
Conditions: suspended in hexane with 1% Tween 80, sonicated 120 seconds
Procedure: In accordance with the invention, the size distribution of zaleplon particles is determined by laser diffraction. Our method of determining the size of zaleplon particles used a Malvern™ Mastersizer laser diffraction instrument. Samples of the zaleplon were suspended in hexane containing a surfactant, 1% Tween® 80. The suspensions were mixed and then sonicated for 120 seconds to thoroughly disperse the zaleplon particles. The dispersion was then circulated in the flow cell of the Malvern Mastersizer for two minutes before particle size measurements were taken.

| Compound | diameter that 10% of the particles are equal to or less than | diameter that 90% of the particles are equal to or less than | median particle size |
| --- | --- | --- | --- |
| CCN(C(C)=O)c1cccc(-c2ccnc3c(C#N)cnn23)c1 [Zaleplon, N-[3-(3-cyanopyrazolo[1,5-a]pyrimidin-7-yl)phenyl]-N-ethylacetamide] | 14 μm | 134 μm | 55 μm |
| CCN(C(C)=O)c1cccc(-c2ccnc3c(C#N)cnn23)c1 [micronized zaleplon, N-[3-(3-cyanopyrazolo[1,5-a]pyrimidin-7-yl)phenyl]-N-ethylacetamide] |  | 15.1 μm | 6.3 μm |
| CCN(C(C)=O)c1cccc(-c2ccnc3c(C#N)cnn23)c1 [milled zaleplon, N-[3-(3-cyanopyrazolo[1,5-a]pyrimidin-7-yl)phenyl]-N-ethylacetamide] | 8.3 μm | 84.6 μm | 37.0 μm |
